From patent publication US20070048356A1, “Antimicrobial treatment of nonwoven materials for infection control” (priority 2005, published 2007)

Assays:
Experiment in all cases: Dynamic Shake Flask (based on ASTM E 2149-01) on treated nonwoven
Type in all cases: cell-based
C. Albicans (ATCC 10231) = details: Table 15, SMS
S. aureus (ATCC 6538) = details: Table 12
[1] = system: P. aeruginosa (ATCC 9027); details: Table 13
Method: (§1) The test organisms are grown in 25 mL appropriate broth medium for about 24±2 hours at 37±2° C. in a wrist action shaker. The bacterial culture is then transferred by placing about 100 μL aliquot in 25 mL of broth and grown again for about 24±2 hours at 37±2° C. The organisms are then centrifuged and washed three times with phosphate buffered saline (PBS). The organisms are then suspended in PBS to obtain an inoculum of approximately 1×10^8 CFU/mL.
(§2) The test articles and control swatches are exposed to an ultraviolet light source for about 5-10 minutes per side before testing to assure that the swatches are sanitized prior to inoculation with the bacteria. The test materials are brought into contact with a known population of test bacteria from the inoculum for a specified period of time. A sample is then plated at the end of the exposure time to enumerate the surviving bacteria. The log10 reduction form the control material and the original population is calculated using the following formula: Log10 Control*−Log10 CFU/swatch Test Article=Log10 Reduction
[…] This buffer solution contains a chemical to de-activate or “neutralize” the antimicrobial agent to (a) stop the active agent from killing the organisms after the designated time period and (b) to prevent artifacts that may arise from exposing the microorganisms to the antimicrobial in solution rather than solely on the substrate. Because each chemical used as an antimicrobial agent is a little different (ie: cationic, nonionic, metal, etc), a different neutralizer was likely added in each case to shut off the antimicrobial at the desired end point of the experiment. […] The neutralizer employed may be selected from a list that is commonly used in the field. […] Testing Mat.

A. Niger (ATCC 16404) = details: Table 14, Spunbond
Method: as §1, §2
[…] This buffer solution contains a chemical to de-activate or “neutralize” the antimicrobial agent to (a) stop the active agent from killing the organisms after the designated time period and (b) to prevent artifacts that may arise from exposing the microorganisms to the antimicrobial in solution rather than solely on the substrate. Because each chemical used as an antimicrobial agent is a little different (ie: cationic, nonionic, metal, etc), a different neutralizer was likely added in each case to shut off the antimicrobial at the desired end point of the experiment. […] The neutralizer employed may be selected from a list that is commonly used in the field. These include, non-ionic degtergents, Bisulphate, lecithin, leethen broth, thiosulfate, thioglycolate, and pH buffers, Method similar to those described in American Society for Testing and Materials, Standard Practices for Evaluating Inactivators of Antimicrobial Agents Used in Disinfectant, Sanitizer, Antiseptic, or Preserved Products, Amer. Soc. Testing Mat. E 1054-91 (1991) can be used.

## Chitosan glycolate [1.0% Chitosan]
C. Albicans (ATCC 10231); contact time 1 min
  Dynamic Shake Flask Log10 Reduction: 0.04 Log10
C. Albicans (ATCC 10231); contact time 5 min
  Dynamic Shake Flask Log10 Reduction: 0.13 Log10
C. Albicans (ATCC 10231); contact time 15 min
  Dynamic Shake Flask Log10 Reduction: 1 Log10
S. aureus (ATCC 6538); Meltblown, contact time 1 min
  Dynamic Shake Flask Log10 Reduction: 0.26 Log10
S. aureus (ATCC 6538); Meltblown, contact time 5 min
  Dynamic Shake Flask Log10 Reduction: 0.21 Log10
S. aureus (ATCC 6538); Meltblown, contact time 15 min
  Dynamic Shake Flask Log10 Reduction: 0.25 Log10
S. aureus (ATCC 6538); SMS, contact time 1 min
  Dynamic Shake Flask Log10 Reduction: 0.03 Log10
S. aureus (ATCC 6538); SMS, contact time 5 min
  Dynamic Shake Flask Log10 Reduction: 0.57 Log10
S. aureus (ATCC 6538); SMS, contact time 15 min
  Dynamic Shake Flask Log10 Reduction: 1.03 Log10
S. aureus (ATCC 6538); Spunbond, contact time 1 min
  Dynamic Shake Flask Log10 Reduction: 0 Log10
S. aureus (ATCC 6538); Spunbond, contact time 5 min
  Dynamic Shake Flask Log10 Reduction: 0.64 Log10
S. aureus (ATCC 6538); Spunbond, contact time 15 min
  Dynamic Shake Flask Log10 Reduction: 2.05 Log10
[1]; Meltblown, contact time 1 min
  Dynamic Shake Flask Log10 Reduction: 0.5 Log10
[1]; Meltblown, contact time 5 min
  Dynamic Shake Flask Log10 Reduction: 0.62 Log10
[1]; Meltblown, contact time 15 min
  Dynamic Shake Flask Log10 Reduction: 0.61 Log10
[1]; SMS, contact time 1 min
  Dynamic Shake Flask Log10 Reduction: 0.81 Log10
[1]; SMS, contact time 5 min
  Dynamic Shake Flask Log10 Reduction: 4 Log10
[1]; SMS, contact time 15 min
  Dynamic Shake Flask Log10 Reduction: 4 Log10
[1]; Spunbond, contact time 1 min
  Dynamic Shake Flask Log10 Reduction: 0.47 Log10
[1]; Spunbond, contact time 5 min
  Dynamic Shake Flask Log10 Reduction: 2.16 Log10
[1]; Spunbond, contact time 15 min
  Dynamic Shake Flask Log10 Reduction: 4 Log10
A. Niger (ATCC 16404); contact time 1 min
  Dynamic Shake Flask Log10 Reduction: 0.11 Log10
A. Niger (ATCC 16404); contact time 5 min
  Dynamic Shake Flask Log10 Reduction: 0.27 Log10
A. Niger (ATCC 16404); contact time 15 min
  Dynamic Shake Flask Log10 Reduction: 0.31 Log10

## N-Alkyl Polyglycoside [1.0% Alkyl Polyglycoside]
C. Albicans (ATCC 10231); contact time 1 min
  Dynamic Shake Flask Log10 Reduction: 0.59 Log10
C. Albicans (ATCC 10231); contact time 5 min
  Dynamic Shake Flask Log10 Reduction: 0.08 Log10
C. Albicans (ATCC 10231); contact time 15 min
  Dynamic Shake Flask Log10 Reduction: 0.19 Log10
S. aureus (ATCC 6538); Meltblown, contact time 1 min
  Dynamic Shake Flask Log10 Reduction: 2.97 Log10
S. aureus (ATCC 6538); Meltblown, contact time 5 min
  Dynamic Shake Flask Log10 Reduction: 4 Log10
S. aureus (ATCC 6538); Meltblown, contact time 15 min
  Dynamic Shake Flask Log10 Reduction: 4 Log10
S. aureus (ATCC 6538); SMS, contact time 1 min
  Dynamic Shake Flask Log10 Reduction: 0 Log10
S. aureus (ATCC 6538); SMS, contact time 5 min
  Dynamic Shake Flask Log10 Reduction: 0 Log10
S. aureus (ATCC 6538); SMS, contact time 15 min
  Dynamic Shake Flask Log10 Reduction: 0 Log10
S. aureus (ATCC 6538); Spunbond, contact time 1 min
  Dynamic Shake Flask Log10 Reduction: 0 Log10
S. aureus (ATCC 6538); Spunbond, contact time 5 min
  Dynamic Shake Flask Log10 Reduction: 0 Log10
S. aureus (ATCC 6538); Spunbond, contact time 15 min
  Dynamic Shake Flask Log10 Reduction: 0 Log10
[1]; Meltblown, contact time 1 min
  Dynamic Shake Flask Log10 Reduction: 2.38 Log10
[1]; Meltblown, contact time 5 min
  Dynamic Shake Flask Log10 Reduction: 4 Log10
[1]; Meltblown, contact time 15 min
  Dynamic Shake Flask Log10 Reduction: 4 Log10
[1]; SMS, contact time 1 min
  Dynamic Shake Flask Log10 Reduction: 0.37 Log10
[1]; SMS, contact time 5 min
  Dynamic Shake Flask Log10 Reduction: 0.37 Log10
[1]; SMS, contact time 15 min
  Dynamic Shake Flask Log10 Reduction: 0.36 Log10
[1]; Spunbond, contact time 1 min
  Dynamic Shake Flask Log10 Reduction: 0.61 Log10
[1]; Spunbond, contact time 5 min
  Dynamic Shake Flask Log10 Reduction: 0.41 Log10
[1]; Spunbond, contact time 15 min
  Dynamic Shake Flask Log10 Reduction: 0.41 Log10
A. Niger (ATCC 16404); contact time 1 min
  Dynamic Shake Flask Log10 Reduction: 0.64 Log10
A. Niger (ATCC 16404); contact time 5 min
  Dynamic Shake Flask Log10 Reduction: 0.53 Log10
A. Niger (ATCC 16404); contact time 15 min
  Dynamic Shake Flask Log10 Reduction: 0.50 Log10

## PG-Hydroxyethylcellulose Cocodimonium Chloride
C. Albicans (ATCC 10231); contact time 1 min
  Dynamic Shake Flask Log10 Reduction: 1.25 Log10
C. Albicans (ATCC 10231); contact time 5 min
  Dynamic Shake Flask Log10 Reduction: 2.12 Log10
C. Albicans (ATCC 10231); contact time 15 min
  Dynamic Shake Flask Log10 Reduction: 2.56 Log10
S. aureus (ATCC 6538); Meltblown, contact time 1 min
  Dynamic Shake Flask Log10 Reduction: 0.09 Log10
S. aureus (ATCC 6538); Meltblown, contact time 5 min
  Dynamic Shake Flask Log10 Reduction: 0.2 Log10
S. aureus (ATCC 6538); Meltblown, contact time 15 min
  Dynamic Shake Flask Log10 Reduction: 0.44 Log10
S. aureus (ATCC 6538); SMS, contact time 1 min
  Dynamic Shake Flask Log10 Reduction: 1.38 Log10
S. aureus (ATCC 6538); SMS, contact time 5 min
  Dynamic Shake Flask Log10 Reduction: 2.97 Log10
S. aureus (ATCC 6538); SMS, contact time 15 min
  Dynamic Shake Flask Log10 Reduction: 4 Log10
S. aureus (ATCC 6538); Spunbond, contact time 1 min
  Dynamic Shake Flask Log10 Reduction: 0.33 Log10
S. aureus (ATCC 6538); Spunbond, contact time 5 min
  Dynamic Shake Flask Log10 Reduction: 0.63 Log10
S. aureus (ATCC 6538); Spunbond, contact time 15 min
  Dynamic Shake Flask Log10 Reduction: 1.74 Log10
[1]; Meltblown, contact time 1 min
  Dynamic Shake Flask Log10 Reduction: 0.34 Log10
[1]; Meltblown, contact time 5 min
  Dynamic Shake Flask Log10 Reduction: 0.35 Log10
[1]; Meltblown, contact time 15 min
  Dynamic Shake Flask Log10 Reduction: 0.42 Log10
[1]; SMS, contact time 1 min
  Dynamic Shake Flask Log10 Reduction: 4 Log10
[1]; SMS, contact time 5 min
  Dynamic Shake Flask Log10 Reduction: 4 Log10
[1]; SMS, contact time 15 min
  Dynamic Shake Flask Log10 Reduction: 4 Log10
[1]; Spunbond, contact time 1 min
  Dynamic Shake Flask Log10 Reduction: 4 Log10
[1]; Spunbond, contact time 5 min
  Dynamic Shake Flask Log10 Reduction: 4 Log10
[1]; Spunbond, contact time 15 min
  Dynamic Shake Flask Log10 Reduction: 4 Log10
A. Niger (ATCC 16404); contact time 1 min
  Dynamic Shake Flask Log10 Reduction: 0.00 Log10
A. Niger (ATCC 16404); contact time 5 min
  Dynamic Shake Flask Log10 Reduction: 0.01 Log10
A. Niger (ATCC 16404); contact time 15 min
  Dynamic Shake Flask Log10 Reduction: 0.07 Log10
